ChEMBL document CHEMBL1201862, “PubChem BioAssay data set” (2004)
Where a name gives a salt, the structure may show the parent alone. Active and inactive are the calls of the source.

How the values were obtained:
[1] = target: NAD-dependent protein deacylase sirtuin-5, mitochondrial (Homo sapiens, UniProt Q9NXA8); assay: blockers of sirtuin-5 peptide desuccinylation – biochemical, fluorescence imaging, cherry-pick, set 6, dose response (AID 720597)
[2] = LMP1-induced NF-kB luciferase signal inhibition – cell-based, EBV LMP1, dry powder, set 2, dose response (AID 624361); type: functional
[3] = cells
[4] = target: T1, DNA repair and recombination protein RAD54-like (Homo sapiens, UniProt Q92698); assay: RAD54 Holliday junction migration blockers – biochemical, fluorescence, cherry-picked samples, dose series, confirmation (AID 651657); type: functional
T1 sequence (Q92698 whole entry): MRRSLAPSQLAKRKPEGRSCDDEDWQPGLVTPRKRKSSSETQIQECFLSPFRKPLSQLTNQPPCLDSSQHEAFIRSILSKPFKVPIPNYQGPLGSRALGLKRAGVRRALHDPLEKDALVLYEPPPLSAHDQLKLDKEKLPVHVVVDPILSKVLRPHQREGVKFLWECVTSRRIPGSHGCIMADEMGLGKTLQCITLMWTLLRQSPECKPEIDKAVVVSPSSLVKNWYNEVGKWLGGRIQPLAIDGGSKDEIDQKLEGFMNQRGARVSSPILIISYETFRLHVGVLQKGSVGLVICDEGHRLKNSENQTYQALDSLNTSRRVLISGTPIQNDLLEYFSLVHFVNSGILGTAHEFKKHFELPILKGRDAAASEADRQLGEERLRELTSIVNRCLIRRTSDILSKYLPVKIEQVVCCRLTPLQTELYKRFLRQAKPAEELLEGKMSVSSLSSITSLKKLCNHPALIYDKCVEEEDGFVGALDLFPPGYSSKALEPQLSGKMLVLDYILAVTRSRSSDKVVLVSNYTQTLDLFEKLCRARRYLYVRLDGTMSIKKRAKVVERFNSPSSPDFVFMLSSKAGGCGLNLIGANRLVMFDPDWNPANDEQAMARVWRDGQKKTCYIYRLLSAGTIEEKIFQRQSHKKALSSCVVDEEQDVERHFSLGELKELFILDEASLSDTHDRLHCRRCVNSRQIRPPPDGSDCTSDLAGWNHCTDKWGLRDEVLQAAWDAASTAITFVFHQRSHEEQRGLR

[5] = cells; settings: A549
[6] = viability loss in HepG2 liver cells – cell-based, ATP luminescence, cherry-pick, set 6, cytotoxicity control, dose response (AID 1053125); type: functional
[7] = Luminescence Cell-Based Dose Response HTS to Identify Inhibitors of 5'UTR Stem-Loop Driven Prion Protein mRNA Translation in H4 Neuroglioblastoma Cells. [Related pubchem assays: 1827 (Project Summary), 1813 (Primary HTS)]; type: functional
[8] = system: HEK293; assay: cells; settings: Homo sapiens
[9] = Counterscreen for activators of the function of SWI/SNF related, matrix associated, actin dependent regulator of chromatin, subfamily a, member 2 (SMARCA2, BRM): Luminescence-based cell-based high throughput dose response assay to identify non-selective compounds using the VP16 reporter assay.; type: functional
[10] = cells; settings: HEK293
[11] = target: DNA repair protein RAD52 homolog (Homo sapiens, UniProt P43351); type: functional, biochemical
Chain of DNA repair protein RAD52 homolog (P43351 whole entry): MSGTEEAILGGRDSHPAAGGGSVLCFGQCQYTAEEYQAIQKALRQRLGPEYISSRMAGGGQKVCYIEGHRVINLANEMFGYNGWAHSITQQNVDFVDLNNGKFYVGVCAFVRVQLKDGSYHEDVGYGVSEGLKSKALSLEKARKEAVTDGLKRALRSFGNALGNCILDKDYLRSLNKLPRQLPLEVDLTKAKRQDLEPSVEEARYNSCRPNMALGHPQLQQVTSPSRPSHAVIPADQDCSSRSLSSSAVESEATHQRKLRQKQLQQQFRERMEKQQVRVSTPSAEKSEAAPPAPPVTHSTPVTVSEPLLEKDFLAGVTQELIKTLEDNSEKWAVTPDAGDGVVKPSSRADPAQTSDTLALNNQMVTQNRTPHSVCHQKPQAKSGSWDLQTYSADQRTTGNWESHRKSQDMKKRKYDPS

[12] = system: HEK293; assay: cells; settings: Homo sapiens; remark: listed apart in the source
[13] = luciferase reporter signal suppression in cells – H4 neuroglioma cells, luminescence, dose response (AID 1990); type: functional, cell-based
[14] = target: SWI/SNF-related matrix-associated actin-dependent regulator of chromatin subfamily A member 2 (Homo sapiens, UniProt P51531); assay: Luminescence-based cell-based high throughput dose response assay to identify activators of the function of SWI/SNF related, matrix associated, actin dependent regulator of chromatin, subfamily a, member 2 (SMARCA2, BRM).; type: functional
Chain of SWI/SNF-related matrix-associated actin-dependent regulator of chromatin subfamily A member 2 (P51531 whole entry): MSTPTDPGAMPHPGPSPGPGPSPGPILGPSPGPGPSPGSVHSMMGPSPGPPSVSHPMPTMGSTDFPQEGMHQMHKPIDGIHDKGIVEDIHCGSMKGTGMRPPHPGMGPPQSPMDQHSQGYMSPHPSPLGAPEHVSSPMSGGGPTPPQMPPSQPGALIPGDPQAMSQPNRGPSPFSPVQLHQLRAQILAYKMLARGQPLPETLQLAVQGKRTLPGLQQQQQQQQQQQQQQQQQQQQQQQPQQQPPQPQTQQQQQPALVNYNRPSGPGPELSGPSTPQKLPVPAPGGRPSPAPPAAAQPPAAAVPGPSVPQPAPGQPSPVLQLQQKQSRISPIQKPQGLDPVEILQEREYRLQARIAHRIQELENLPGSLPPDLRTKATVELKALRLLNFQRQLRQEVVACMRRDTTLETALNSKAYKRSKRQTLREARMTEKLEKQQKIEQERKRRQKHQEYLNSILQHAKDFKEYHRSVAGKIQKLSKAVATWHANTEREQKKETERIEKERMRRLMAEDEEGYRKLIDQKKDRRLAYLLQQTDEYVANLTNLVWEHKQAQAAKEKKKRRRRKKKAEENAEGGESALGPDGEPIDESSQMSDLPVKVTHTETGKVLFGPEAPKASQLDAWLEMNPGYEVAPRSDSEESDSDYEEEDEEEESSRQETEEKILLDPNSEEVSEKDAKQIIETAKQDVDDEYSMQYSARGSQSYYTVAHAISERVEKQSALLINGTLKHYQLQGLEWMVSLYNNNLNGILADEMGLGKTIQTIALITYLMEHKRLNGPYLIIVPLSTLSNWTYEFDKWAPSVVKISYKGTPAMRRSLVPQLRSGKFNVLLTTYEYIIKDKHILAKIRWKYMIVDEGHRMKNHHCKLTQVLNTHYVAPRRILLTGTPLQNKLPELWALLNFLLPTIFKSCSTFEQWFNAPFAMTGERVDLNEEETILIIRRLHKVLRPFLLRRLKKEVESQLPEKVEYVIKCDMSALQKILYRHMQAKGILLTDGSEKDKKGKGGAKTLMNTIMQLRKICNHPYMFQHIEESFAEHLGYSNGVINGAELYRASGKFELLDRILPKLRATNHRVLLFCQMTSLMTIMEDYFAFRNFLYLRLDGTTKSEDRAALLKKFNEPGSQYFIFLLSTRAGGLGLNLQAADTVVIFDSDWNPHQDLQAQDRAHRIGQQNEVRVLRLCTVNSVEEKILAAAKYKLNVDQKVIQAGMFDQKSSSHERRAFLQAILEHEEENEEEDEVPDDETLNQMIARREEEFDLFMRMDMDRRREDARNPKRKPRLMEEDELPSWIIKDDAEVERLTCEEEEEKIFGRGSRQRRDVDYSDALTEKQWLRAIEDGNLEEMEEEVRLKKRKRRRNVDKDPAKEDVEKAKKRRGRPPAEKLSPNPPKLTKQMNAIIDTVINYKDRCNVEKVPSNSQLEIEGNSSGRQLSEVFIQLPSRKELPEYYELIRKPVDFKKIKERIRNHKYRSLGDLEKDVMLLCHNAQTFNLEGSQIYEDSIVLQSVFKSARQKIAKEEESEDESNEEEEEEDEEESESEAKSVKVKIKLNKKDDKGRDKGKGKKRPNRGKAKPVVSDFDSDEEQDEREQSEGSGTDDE

[15] = target: COUP transcription factor 2 (Homo sapiens, UniProt P24468); assay: Luminescence-based cell-based high throughput dose response assay to identify inhibitors of COUP-TFII (NR2F2).; type: functional;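 further: HEK293 cells transiently cotransfected with COUP-TFII expression vector and reporter; luciferase reporter luminescence driven by COUP-TFII from the pX2-168 reporter plasmid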
Chain of COUP transcription factor 2 (P24468 whole entry): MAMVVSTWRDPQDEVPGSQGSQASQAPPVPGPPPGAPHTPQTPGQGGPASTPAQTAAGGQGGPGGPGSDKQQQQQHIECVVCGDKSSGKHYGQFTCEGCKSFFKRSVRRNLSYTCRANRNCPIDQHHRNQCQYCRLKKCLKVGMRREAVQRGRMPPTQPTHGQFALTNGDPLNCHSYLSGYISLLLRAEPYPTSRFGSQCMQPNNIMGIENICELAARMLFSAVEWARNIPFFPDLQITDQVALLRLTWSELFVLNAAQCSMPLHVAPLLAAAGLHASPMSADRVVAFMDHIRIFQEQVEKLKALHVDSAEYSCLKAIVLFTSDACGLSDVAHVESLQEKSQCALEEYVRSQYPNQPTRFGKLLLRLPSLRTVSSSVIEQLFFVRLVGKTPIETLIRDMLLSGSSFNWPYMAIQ

[16] = inhibitors of non-replicating M. tuberculosis, dose response, luciferase, dry powder (AID 651619); type: functional; settings: Mycobacterium tuberculosis
[17] = inhibitors of non-replicating M. tuberculosis, dose response, luciferase, dry powder (AID 651620); type: functional; settings: Mycobacterium tuberculosis
[18] = target: T2, Protein skinhead-1 (Caenorhabditis elegans, UniProt P34707); type: functional
T2 sequence (P34707 whole entry): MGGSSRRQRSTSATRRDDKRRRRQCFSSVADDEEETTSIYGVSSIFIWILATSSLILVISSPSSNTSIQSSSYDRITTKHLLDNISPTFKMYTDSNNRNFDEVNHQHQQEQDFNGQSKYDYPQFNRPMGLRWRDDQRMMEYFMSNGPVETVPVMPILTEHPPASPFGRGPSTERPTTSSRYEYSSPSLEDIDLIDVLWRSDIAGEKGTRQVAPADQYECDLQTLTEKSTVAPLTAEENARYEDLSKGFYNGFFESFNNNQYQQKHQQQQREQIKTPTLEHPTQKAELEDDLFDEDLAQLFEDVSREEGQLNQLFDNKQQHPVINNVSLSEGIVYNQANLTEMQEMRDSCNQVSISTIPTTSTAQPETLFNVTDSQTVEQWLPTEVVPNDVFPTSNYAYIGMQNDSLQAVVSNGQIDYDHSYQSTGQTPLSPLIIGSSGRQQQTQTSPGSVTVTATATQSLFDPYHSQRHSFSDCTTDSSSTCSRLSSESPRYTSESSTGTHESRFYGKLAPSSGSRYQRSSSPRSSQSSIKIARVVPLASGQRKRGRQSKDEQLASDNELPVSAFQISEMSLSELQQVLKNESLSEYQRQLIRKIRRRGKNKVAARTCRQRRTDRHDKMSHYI

[19] = target: T3, Oxysterols receptor LXR-beta (Homo sapiens, UniProt P55055); type: functional, cell-based;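 further: Cell-based luminescence dose-response assay of agonist activity at LXR, run as a confirmatory counterscreen to a daf-12 agonist screen; HEK293 cells with Gal4-LXR fusion and GAL4-driven luciferase reporter; agonist potency from rising luciferase signal of a Gal4-LXR reporter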
T3 sequence (P55055 whole entry): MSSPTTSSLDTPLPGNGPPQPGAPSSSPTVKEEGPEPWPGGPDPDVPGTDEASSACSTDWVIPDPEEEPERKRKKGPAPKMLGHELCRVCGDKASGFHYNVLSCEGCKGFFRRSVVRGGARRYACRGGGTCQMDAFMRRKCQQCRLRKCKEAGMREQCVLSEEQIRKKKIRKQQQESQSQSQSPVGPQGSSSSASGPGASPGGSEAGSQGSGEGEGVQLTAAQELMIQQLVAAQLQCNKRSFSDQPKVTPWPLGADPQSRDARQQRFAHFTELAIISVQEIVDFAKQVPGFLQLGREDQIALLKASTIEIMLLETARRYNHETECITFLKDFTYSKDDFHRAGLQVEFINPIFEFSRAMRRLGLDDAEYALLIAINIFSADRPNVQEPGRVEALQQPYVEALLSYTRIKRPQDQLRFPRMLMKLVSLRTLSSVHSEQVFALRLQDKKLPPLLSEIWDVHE

[20] = cells; remark: listed apart in the source
[21] = reduction of Shn3 3'UTR-driven luciferase in osteoblasts – cell-based, Clone20 osteoblasts, firefly luciferase, cherry-picked, dose response (AID 624132); type: functional;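 further: firefly luciferase luminescence from reporter carrying the Shn3 3'UTR in osteoblasts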
[22] = Shn3 3'UTR reporter signal decrease – cell-based, Clone20 osteoblasts, firefly luciferase, cherry-pick, set 2, Schnurri-3 inhibitor project, dose response (AID 720490); type: functional;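 further: actives lower the luminescence signal as inhibitors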
[23] = IGROV1 cell killing – plate reader, dry powder samples, PAX8 inhibitor project, dose response (AID 743043); type: functional, cell-based; settings: IGROV-1
[24] = PAX8-dependent cell viability loss – plate reader, dry powder, dose response (AID 743049); type: functional, cell-based
[25] = OVCAR-3 cell viability loss – plate reader, dry powder samples, PAX8 inhibitor project, dose response (AID 743044); type: functional, cell-based
[26] = A2780 cell killing – plate reader, dry powder samples, cytotoxicity control, dose response (AID 743046); type: functional, cell-based
[27] = OV-90 cell viability loss – plate reader, dry powder, SA8, PAX8 inhibitor project, dose response (AID 743149); type: functional, cell-based
[28] = target: Paired box protein Pax-8 (Homo sapiens, UniProt Q06710); assay: PAX8 transcriptional activity inhibition in RMG-I – RMG-I cells, luciferase, cherry-pick, dose response (AID 687027); type: functional, cell-based;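 further: luciferase reporter driven by Pax8 target thyroperoxidase promoter measured by SteadyGlo luminescence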
Chain of Paired box protein Pax-8 (Q06710 whole entry): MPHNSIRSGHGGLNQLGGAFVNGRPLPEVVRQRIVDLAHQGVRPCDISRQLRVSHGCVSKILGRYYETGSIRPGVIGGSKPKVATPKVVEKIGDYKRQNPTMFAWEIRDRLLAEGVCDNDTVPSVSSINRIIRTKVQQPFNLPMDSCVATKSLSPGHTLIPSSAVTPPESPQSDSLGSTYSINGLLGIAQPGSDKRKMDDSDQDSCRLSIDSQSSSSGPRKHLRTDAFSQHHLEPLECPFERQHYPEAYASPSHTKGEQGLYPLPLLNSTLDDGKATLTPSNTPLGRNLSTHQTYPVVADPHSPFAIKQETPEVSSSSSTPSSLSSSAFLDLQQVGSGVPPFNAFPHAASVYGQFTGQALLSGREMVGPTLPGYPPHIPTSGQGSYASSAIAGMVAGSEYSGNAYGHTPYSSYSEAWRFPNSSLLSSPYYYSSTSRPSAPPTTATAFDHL

[29] = inhibitors acting on PAX2 in cells – cell-based, plate reader, dry powder samples, selectivity assay for PAX8 inhibitor project, dose response (AID 743048); type: functional;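 further: HEK293 cells carrying a WT1 promoter luciferase reporter driven by expressed Pax2; potency is for inhibition of Pax2 driven reporter signal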
[30] = toxicity toward immortalized ovarian surface epithelium – cell-based, plate reader, dry powder samples, cytotoxicity control for PAX8 inhibitor project, dose response (AID 743045); type: functional
[31] = COV434 cell viability loss – plate reader, dry powder, SA7, cytotoxicity control for PAX8 inhibitor project, dose response (AID 743145); type: functional, cell-based
[32] = OVCAR4 cell viability loss – plate reader, dry powder, SA11, cytotoxicity control for PAX8 inhibitor project, dose response (AID 743150); type: functional, cell-based; settings: OVCAR-4
[33] = PAX5 cellular inhibition readout – cell-based, plate reader, dry powder samples, selectivity assay for PAX8 inhibitor project, dose response (AID 743047); type: functional;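 further: HEK293 cells carrying a Pax5 driven CD19 promoter luciferase reporter; potency of inhibitors that lower reporter luminescence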
[34] = COV362 cell viability loss – plate reader, dry powder, SA12, cytotoxicity control for PAX8 inhibitor project, dose response (AID 743144); type: functional, cell-based

Chain of NAD-dependent protein deacylase sirtuin-5, mitochondrial (Q9NXA8 whole entry): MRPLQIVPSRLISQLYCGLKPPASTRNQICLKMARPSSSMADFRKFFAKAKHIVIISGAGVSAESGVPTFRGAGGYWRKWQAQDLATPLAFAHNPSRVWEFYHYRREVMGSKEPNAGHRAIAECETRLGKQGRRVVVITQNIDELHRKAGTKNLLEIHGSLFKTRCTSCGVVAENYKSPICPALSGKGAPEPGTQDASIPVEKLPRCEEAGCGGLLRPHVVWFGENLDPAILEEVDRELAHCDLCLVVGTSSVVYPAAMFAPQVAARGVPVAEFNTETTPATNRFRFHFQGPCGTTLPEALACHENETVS

With `Cc1noc(C)c1S(=O)(=O)Nc1ccc2c(c1)C(=O)N([C@H](C)CO)C[C@@H](C)[C@H](CN(C)Cc1ccc(C(F)(F)F)cc1)OCCCC[C@@H](C)O2` the AC50 [1] was > 30 µM (inactive) and the AbsAC35 [2] was 39.54 µM.
With `Nc1c2ccccc2nc2ccccc12` [AMINACRINE HYDROCHLORIDE] the AC50 [3] was 0.341 µM (active), the AC50 [4] was 2.76 µM (active) and the AC50 [5] was 4.06 µM (active). The AC50 [6] was 7.15 µM (active), the EC50 [7] was > 60 µM (not active) and the EC50 [8] was > 2.21 µM (active). For the same compound, the EC50 [9] was > 91.1 µM (inactive), the AC50 [10] was 2.57 µM (active) and the AC50 [11] was < 1.92 µM (active). The EC50 [12] was > 59.7 µM (inactive), the EC50 [13] was > 120 µM (not active) and the EC50 [14] was > 3.38 µM (active).
In the case of `CCN(CC)S(=O)(=O)c1ccc(/C=C/C(=O)Nc2ccc(Br)cc2F)cc1`, the IC50 [15] is reported as 5.05 µM (active).
In the case of `[O-][n+]1ccccc1CSc1nnc(-c2ccccc2)o1`, the IC90 [16] is reported as 31 µM (active) and the IC90 [17] is reported as 31 µM (active).
In the case of `Fc1ccc(-c2nnc(-c3ccc4ccccc4c3)o2)cc1`, the IC50 [18] is reported as > 100 µM (inactive), the EC50 [19] is reported as > 67.5 µM (inactive) and the EC50 [20] is reported as > 67.5 µM (inactive).
In the case of `COc1ccc(CNC(=O)C(c2ccc(C)cc2)N(Cc2cccs2)C(=O)c2ccc3c(c2)OCCO3)cc1` (centres undefined), the AC50 [21] is reported as 8.1 µM (active) and the AC50 [22] is reported as 13.8 µM (active).
In the case of `COc1ccc(/C=C/C(=O)c2cc(F)ccc2OC(=O)c2ccccc2C)cc1OC`, the AC50 [23] is reported as 3.26 µM (active), the AC50 [24] is reported as 5.56 µM (active) and the AC50 [25] is reported as 13.2 µM (active). For the same compound, the AC50 [26] was 3.22 µM (active), the AC50 [27] was 4.08 µM (active) and the AC50 [28] was 1.74 µM (active). For the same compound, the AC50 [29] was > 100 µM (inactive), the AC50 [30] was 4.08 µM (active) and the AC50 [31] was 1.79 µM (active). For the same compound, the AC50 [32] was 1.71 µM (active), the AC50 [33] was 31.1 µM (active) and the AC50 [34] was 2.52 µM (active).
